# Measured values as given in patent US20060167081A1, “Ep4 receptor agonists” (priority 2002, published 2006).
# Experiments:
# intracellular cAMP = experiment: Intracellular cAMP in osteoblastic cell lines; format: cell-based, rat
# Description: (§1) Cell Cultures—RP-1 periosteal cells are spontaneously immortalized from primary cultures of periosteal cells from tibae of 4-week old Sprague-Dawley rats and are cultured in DMEM (BRL, Gaithersburg, Md.) with 10% fetal bovine serum (JRP Biosciences, Lenexa, KS). […] RCT-1 and RCT-3 are clonal cell lines immortalized by SV40 large T antigen from cells released from fetal rat calvair by a cmbination collagenase/hyaluronidase digestion. RCT-1 cells, derived from cells released during the first 10 minutes of digestion (fraction I), are cultured in RPMI 1640 medium (BRL) with 10% fetal bovine serum and 0.4 mg/ml G418 (BRL). These cells differentiate and express osteoblastic features upon retinoic acid treatment. RCT-3 cells, immortalized from osteoblast-enriched fraction m cells, are cultured in F-12 medium (BRL) with 5% Fetal bovine serum and 0.4 mg/ml G418. TRAB-11 cells are also immortalized by SV40 large T antigen from adult rat tibia and are cultured in RPMI 1640 medium with 10% FBS and 0.4 mg/ml G418. ROS 17/12.8 rat osteosarcoma cells are cultured in F-12 containing 5% PBS. Osteoblast-enriched (fraction III) primary fetal rat calvaria cells are obtained by collagenase/hyaluronidase digestion of calvariae of 19 day-old rat fetuses. See Rodan et al., Growth stimulation of rat calvaria osteoblastic cells by acidic FGF, Endocrinology, 121, 1919-1923 (1987), which is incorporated by reference herein in its entirety. Cells are released during 30-50 minutes digestion (fraction III) and are cultured in F-12 medium containing 5% FBS. P815 (mouse mastocytoma) cells, cultured in Eagles MEM with 10% FBS, and NRK (normal rat kidney fibroblasts) cells, cultured in DMEM with 10% […], are used as positive and negative controls for the expression of EP4, respectively. See Abramovitz et al., Human prostanoid receptors: cloning and characterization. In: Samulesson B. et al. ed) Advances in prostaglandin, Thrombosznes and leukotriene research, vol. […]
# EP4 mRNA [1] = experiment: EP4 mRNA levels in bone derived cell lines (Northern blot); format: cell-based, rat
# Description: as §1
# EP2 mRNA [2] = experiment: EP2 mRNA in RP-1 periosteal cells (Northern blot); format: cell-based, rat; conditions: RP-1 cells
# Description: Cell Cultures—RP-1 periosteal cells are spontaneously immortalized from primary cultures of periosteal cells from tibae of 4-week old Sprague-Dawley rats and are cultured in DMEM (BRL, Gaithersburg, Md.) with 10% fetal bovine serum (JRP Biosciences, Lenexa, KS). […] RCT-1 and RCT-3 are clonal cell lines immortalized by SV40 large T antigen from cells released from fetal rat calvair by a cmbination collagenase/hyaluronidase digestion. RCT-1 cells, derived from cells released during the first 10 minutes of digestion (fraction I), are cultured in RPMI 1640 medium (BRL) with 10% fetal bovine serum and 0.4 mg/ml G418 (BRL). These cells differentiate and express osteoblastic features upon retinoic acid treatment. RCT-3 cells, immortalized from osteoblast-enriched fraction m cells, are cultured in F-12 medium (BRL) with 5% Fetal bovine serum and 0.4 mg/ml G418. TRAB-11 cells are also immortalized by SV40 large T antigen from adult rat tibia and are cultured in RPMI 1640 medium with 10% FBS and 0.4 mg/ml G418. ROS 17/12.8 rat osteosarcoma cells are cultured in F-12 containing 5% PBS. Osteoblast-enriched (fraction III) primary fetal rat calvaria cells are obtained by collagenase/hyaluronidase digestion of calvariae of 19 day-old rat fetuses. […]
# EP4 mRNA [3] = experiment: EP4 mRNA levels in vivo in bone tissue (Northern blot); parameters: species or system rat; conditions: tibial diaphysis, five-week-old male rats, 3-6 mg/Kg
# From the text: Animal Procedures—For mRNA localization experiments, 5-week old Sprague-Dawley rats (Charles River) are euthanized by CO2, their tibiae and calvariae are excised, cleaned of soft tissues and frozen immediately in liquid nitrogen. […] Animals are euthanized at several time points post-injection and their tibiae and calvariae, as well as samples from lung and kidney tissues are frozen in liquid nitrogen.
# Northern Blot Analysis—Total RNA is extracted from the tibial metaphysis or diaphysis and calvaria using a guanidinium isothiocyanate-phenol-chloroform method after pulverizing frozen bone samples by a tissue homogenizer. See P. Chomczynski et al., Single-step method of RNA isolation by acid guanidium thiocyanate-phenol-chloroform extraction., Analyt Biochem, 162, 156-159 (1987), which is incorporated by reference herein in its entirety. RNA samples ([…]) are separated on 0.9% agarose/formaldehyde gels and transferred onto nylon membranes (Boehringer Mannheim, Germany). Membranes are prehybridized in Hybrisol I (Oncor, Gaithersburg, Md.) and 0.5 mg/ml sonicated salmon sperm DNA (Boehringer) at 42° C. for 3 hours and are hybridized at 420C with rat EP2 and mouse EP4 cDNA probes labeled with [^32P]-dCTP (Amersham, Buckinghamshire, UK) by random priming using the rediprime kit (Amersham). […]
# EP2 mRNA [4] = experiment: EP2 mRNA in vivo in bone tissue (Northern blot); parameters: species or system rat
# EP4 mRNA [5] = experiment: Localization of EP4 mRNA expression in bone tissue (in situ hybridization); format: in vivo, rat; conditions: single anabolic dose, rats
# Description: Animal Procedures—For mRNA localization experiments, 5-week old Sprague-Dawley rats (Charles River) are euthanized by CO2, their tibiae and calvariae are excised, cleaned of soft tissues and frozen immediately in liquid nitrogen. For EP4 regulation experiments, 6-week old rats are given a single injection of either vehicle (7% ethanol in sterile water) or an anabolic dose of PGE2 (Cayman Chemical, Ann Arbor, Mich.), 3-6 mg/kg in the same vehicle) intraperitoneally. Animals are euthanized at several time points post-injection and their tibiae and calvariae, as well as samples from lung and kidney tissues are frozen in liquid nitrogen.
# In-Situ Hybridization—Frozen tibiae are sectioned coronally at […] thickness and sections are mounted on charged slides (Probe On Plus, Fisher Scientific, Springfield, N.J.) and are kept at −70° C. until hybridization. cRNA probes are labeled with ^35S-UTPgS ([CN, Costa Mesa, CA) using a Riboprobe II kit (Promega Madison, Wis.). Hybridization is performed overnight at 50° C. […]
# Localization of EP4 mRNA expression in bone tissue—In situ hybridization is used in order to localize cells expressing EP4 in bone. In control experiment (vehicle-injected) rats, low expression of EP4 is detected in bone marrow cells. […]
smiles,measurement,setting,value
CCCCC[C@H](O)/C=C/[C@H]1[C@H](O)CC(=O)[C@@H]1C/C=C\CCCC(=O)O [PGE2],effect on intracellular cAMP,intracellular cAMP; RCT-3 cells,markedly induced
same,effect on intracellular cAMP,intracellular cAMP; ROS 17/2.8 cells,no effect
same,effect on intracellular cAMP,intracellular cAMP; TRAB-11 cells,markedly induced
same,EP4 mRNA levels,EP4 mRNA [1]; RCT-3 cells,no effect
same,EP4 mRNA levels,"EP4 mRNA [1]; RP-1 periosteal cells, 10^-6 M",rapidly increases
same,time of peak of EP4 mRNA levels after treatment,"EP4 mRNA [1]; RP-1 periosteal cells, 10^-6 M",2 h
same,induction of EP2 mRNA,EP2 mRNA [2],does not induce
same,time of peak of EP4 mRNA levels after injection,EP4 mRNA [3],2 h
same,EP4 mRNA levels,EP4 mRNA [3]; systemic,rapidly increased
same,induction of EP2 mRNA,EP2 mRNA [4],does not induce
same,expression of EP4 in bone marrow cells,EP4 mRNA [5],increased
